Test results: US6586425B2, “Cytoskeletal active agents for glaucoma therapy” (Wisconsin Alumni Research Foundation, priority 1996, dated 2003)
Where “and” joins values, the source holds several entries; their conditions need not be identical. Identical values can stand only once. Entries after “also recorded” stand apart in the source; their conditions may differ.

Tests used:
[1] = test system: corneal endothelium; conditions: cynomolgus monkey, in vivo
[2] = test system: normal living monkey eyes; assay: Miotic and accommodative response to intramuscular pilocarpine; type: in vivo, monkeys
[3] = test system: living monkey eye; assay: Pupil size and refraction after topical H-7; type: in vivo, cynomolgus monkeys; conditions: H-7 150 mM topical, six monkeys
[4] = test system: ciliary muscle strip; assay: Pilocarpine-induced contraction of isolated ciliary muscle strip (muscle chamber); set-up: species or system rhesus monkeys (Macaca mulatta)
[5] = test system: living monkey eye; conditions: in vivo
[6] = test system: ciliary muscle-disinserted monkey eyes; assay: Outflow facility in ciliary muscle-disinserted eyes; type: in vivo, cynomolgus and rhesus monkeys; conditions: H-7 300 μM, nine monkeys

## CC1CNCCN1S(=O)(=O)c1cccc2cnccc12 (stereo not shown) [H-7, 1-(5-isoquinolinyl-sulfonyl)-2-methylpiperazine]
[1]
  change in corneal endothelial cell counts: did not reveal a statistical change in cell counts
  corneal endothelial cell morphology: no morphological changes in cells were observed
[2]; H-7 intracameral (~300 μM) or intravitreal (300 μM-1.2 mM)
  effect on pilocarpine-induced miosis: inhibits ipsilateral pilocarpine-induced miosis
[2]; H-7 intracameral or intravitreal
  effect on pupil after phenylephrine: dilates the ipsilateral pupil even beyond the effect of phenylephrine
[3]
  effect on pupil size: did have an effect on pupil size
  effect on refraction: no statistically significant difference in refraction
[4]
  selectivity longitudinal vs circular vector: no selectivity for one vector over the other
[4]; 10 μM pilocarpine + 300 μM H-7
  time to inhibition of the initial pilocarpine contraction: ≤ 10 min
[4]; 90 minute washout after 300 μM H-7
  contraction to 10 μM pilocarpine after washout: no contraction in either vector
[4]; 2.5 hours after removal of H-7
  contraction to 10 μM pilocarpine after washout: sluggish contraction in both vectors
[5]
  drug-free baseline facility vs first baseline: significant increase in facility
[6]
  facility increase, ciliary muscle disinserted vs non-disinserted eyes: essentially identical proportional increase in outflow facility

## C/C1=C\[C@H](C)C[C@H](C)OC(=O)C[C@H](c2ccc(O)cc2)NC(=O)[C@@H](Cc2c(Br)[nH]c3ccccc23)N(C)C(=O)[C@H](C)NC(=O)[C@@H](C)C1 [Jas]
[5]
  effect of Jas on Lat B-induced facility increase: did not affect the 200 nM Lat B-induced facility increase; also recorded: did not affect the 60 nM Lat B-induced facility increase
  effect on outflow facility: no significant effect on outflow facility
  outflow facility increase, adjusted for baseline and resistance washout in contralateral eyes: 157±57%

## CN[C@@H]1C[C@H]2O[C@@](C)([C@@H]1OC)n1c3ccccc3c3c4c(c5c6ccccc6n2c5c31)C(=O)NC4 [staurosporine]
[5]
  Facility PRx, Rx/Cont: 1.99 ± 0.43 and 1.03 ± 0.17 and 1.57 ± 0.25
